Assay results from PubChem BioAssay (NCI).
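All cell lines were grown in 96-well plates and treated with compound for 48 hours. GI50 is the concentration that inhibits growth by half. Definition used: TGI = concentration required for complete inhibition of growth.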

Legend:
Test in all cases: NCI anticancer screen, dose series, 48 h
[1] = tested on: ACHN renal
[2] = tested on: SK-MEL-2 melanoma
[3] = tested on: RPMI-8226 leukemia
[4] = tested on: IGROV1 ovarian
[5] = tested on: SF-268 CNS
[6] = tested on: SF-539 CNS
[7] = tested on: SK-OV-3 ovarian
[8] = tested on: A498 renal
[9] = tested on: EKVX NSCLC
[10] = tested on: SW-620 colon

Compound	GI50 [1]	TGI [1]	GI50 [2]	TGI [2]	GI50 [3]	TGI [3]	GI50 [4]	TGI [4]	GI50 [5]	TGI [5]	GI50 [6]	TGI [6]	GI50 [7]	TGI [7]	GI50 [8]	TGI [8]	GI50 [9]	TGI [9]	GI50 [10]	TGI [10]
O=C(CCCSc1nc(-c2ccccc2)cc(-c2ccccc2)n1)NO	0.358 µM	1.5 µM	2.35 µM	12.6 µM	0.808 µM	9.38 µM	1.5 µM	9.13 µM	2.03 µM	5.76 µM	1.92 µM	7.09 µM	1.94 µM	5.57 µM	1.12 µM	3.1 µM	2.93 µM	14.5 µM	0.777 µM	12.7 µM
c1ccc(NCn2cnc3ccccc32)cc1	–	> 100 µM	–	> 100 µM	–	71.6 µM	–	> 100 µM	–	> 100 µM	–	> 100 µM	–	> 100 µM	–	> 100 µM	–	> 100 µM	–	> 100 µM
N#C/C(=C\c1cccc(Cl)c1Cl)c1ccccc1	–	> 90.8 µM	–	> 100 µM	–	> 89.1 µM	–	55.2 µM	–	> 100 µM	–	53.3 µM	–	> 89.9 µM	–	89.6 µM	–	> 100 µM	–	> 72.4 µM
COCCOc1ccc(-c2nc3ccc(-c4nc5ccc(N6CCN(C)CC6)cc5[nH]4)cc3[nH]2)cc1	10.7 µM	> 100 µM	1.64 µM	3.59 µM	4.11 µM	35.5 µM	1.71 µM	4.81 µM	0.576 µM	5.67 µM	1.22 µM	2.83 µM	2.7 µM	15.6 µM	1.21 µM	3.39 µM	6.56 µM	46.3 µM	0.9 µM	4.59 µM
C/C(=N/Nc1ccc([N+](=O)[O-])cc1[N+](=O)[O-])C(CC(C(=O)NCc1ccccc1)/C(C)=N\Nc1ccc([N+](=O)[O-])cc1[N+](=O)[O-])C(=O)NCc1ccccc1 (centres undefined)	–	17.4 µM	–	23.9 µM	–	44.8 µM	–	31 µM	–	16.5 µM	–	14.9 µM	–	29.1 µM	–	30.5 µM	–	32.9 µM	–	24.4 µM
N[C@@H]1CCCC[C@@H]1N.O=P([O-])([O-])CN(CCN(CP(=O)([O-])[O-])CP(=O)([O-])[O-])CP(=O)([O-])[O-].[Pt+2]	> 25 µM	> 25 µM	> 25 µM	> 25 µM	> 25 µM	> 25 µM	> 25 µM	> 25 µM	> 25 µM	> 25 µM	> 25 µM	> 25 µM	> 25 µM	> 25 µM	> 25 µM	> 25 µM	> 25 µM	> 25 µM	> 25 µM	> 25 µM
CCC(=C/[C@H](C)C/C=C/C(C)=C/[C@@H](C)C(=O)[C@@H](C)[C@H](O)[C@@H](C)CC)/C=C/[C@H]1OC(=O)C=C[C@@H]1C	< 0.01 µM	0.566 µM	< 0.01 µM	–	< 0.01 µM	1.19 µM	< 0.01 µM	7.67 µM	< 0.01 µM	1.72 µM	< 0.01 µM	< 0.01 µM	< 0.035 µM	13.4 µM	< 0.01 µM	< 0.01 µM	< 0.01 µM	5.21 µM	< 0.01 µM	1.32 µM
